According to ChEMBL document CHEMBL5316308, “BET-HDAC Dual Inhibitors for Combinational Treatment of Breast Cancer and Concurrent Candidiasis” (J Med Chem, 2023):
≈ marks a conversion by molar mass, not a printed value. Calls of active or inactive are those of the source. No cut-off for these calls is given here.

What was measured:
MDA-MB-231 [1] = test: Antiproliferative activity against human MDA-MB-231 cells assessed as cell growth inhibition incubated for 24 hrs by CCK-8 assay; assay type: functional, cell-based; conditions: MDA-MB-231, 24 h
K562 = test: Antiproliferative activity against human K562 cells assessed as cell growth inhibition incubated for 24 hrs by CCK-8 assay; assay type: functional, cell-based; conditions: K562, 24 h
[2] = target: T1, Bromodomain-containing protein 4 (Homo sapiens, UniProt O60885); test: Inhibition of recombinant BRD4 (unknown origin) incubated for 120 mins by TR-FRET assay relative to control; parameters: concentration or dose not given beside the values
Candida albicans [3] = test: microbe, parasite or virus in culture; assay type: functional; conditions: 0304103, time 48 hrs
Description: Synergistic antifungal activity against azole-resistant Candida albicans 0304103 assessed as fungal growth inhibition measured after 48 hrs in presence of FLC by CLSI based micro-dilution broth method

Cryptococcus neoformans = test: Antifungal activity against Cryptococcus neoformans H99 assessed as fungal growth inhibition measured after 48 hrs by CLSI based micro-dilution broth method; assay type: functional
Candida albicans [4] = assay type: functional, 0304103; conditions: time 48 hrs
Description: Synergistic antifungal activity against azole-resistant Candida albicans 0304103 assessed as fractional inhibitory concentration index measured after 48 hrs in presence of FLC by CLSI based micro-dilution broth method

[5] = Metabolic stability in ICR mouse liver microsome assessed as clearance; assay type: ADME; conditions: liver microsomes, read-out: CLH
[6] = target: T2, Protein deacetylase HDAC6 (Homo sapiens, UniProt Q9UBN7); test: Inhibition of N-terminal GST-tagged recombinant human HDAC6 expressed in baculovirus infected Sf9 insect cells using Ac-Leu-Gly-Lys(Ac)-AMC as substrate incubated for 30 mins by fluorescence based assay
T2 sequence (Q9UBN7 whole entry): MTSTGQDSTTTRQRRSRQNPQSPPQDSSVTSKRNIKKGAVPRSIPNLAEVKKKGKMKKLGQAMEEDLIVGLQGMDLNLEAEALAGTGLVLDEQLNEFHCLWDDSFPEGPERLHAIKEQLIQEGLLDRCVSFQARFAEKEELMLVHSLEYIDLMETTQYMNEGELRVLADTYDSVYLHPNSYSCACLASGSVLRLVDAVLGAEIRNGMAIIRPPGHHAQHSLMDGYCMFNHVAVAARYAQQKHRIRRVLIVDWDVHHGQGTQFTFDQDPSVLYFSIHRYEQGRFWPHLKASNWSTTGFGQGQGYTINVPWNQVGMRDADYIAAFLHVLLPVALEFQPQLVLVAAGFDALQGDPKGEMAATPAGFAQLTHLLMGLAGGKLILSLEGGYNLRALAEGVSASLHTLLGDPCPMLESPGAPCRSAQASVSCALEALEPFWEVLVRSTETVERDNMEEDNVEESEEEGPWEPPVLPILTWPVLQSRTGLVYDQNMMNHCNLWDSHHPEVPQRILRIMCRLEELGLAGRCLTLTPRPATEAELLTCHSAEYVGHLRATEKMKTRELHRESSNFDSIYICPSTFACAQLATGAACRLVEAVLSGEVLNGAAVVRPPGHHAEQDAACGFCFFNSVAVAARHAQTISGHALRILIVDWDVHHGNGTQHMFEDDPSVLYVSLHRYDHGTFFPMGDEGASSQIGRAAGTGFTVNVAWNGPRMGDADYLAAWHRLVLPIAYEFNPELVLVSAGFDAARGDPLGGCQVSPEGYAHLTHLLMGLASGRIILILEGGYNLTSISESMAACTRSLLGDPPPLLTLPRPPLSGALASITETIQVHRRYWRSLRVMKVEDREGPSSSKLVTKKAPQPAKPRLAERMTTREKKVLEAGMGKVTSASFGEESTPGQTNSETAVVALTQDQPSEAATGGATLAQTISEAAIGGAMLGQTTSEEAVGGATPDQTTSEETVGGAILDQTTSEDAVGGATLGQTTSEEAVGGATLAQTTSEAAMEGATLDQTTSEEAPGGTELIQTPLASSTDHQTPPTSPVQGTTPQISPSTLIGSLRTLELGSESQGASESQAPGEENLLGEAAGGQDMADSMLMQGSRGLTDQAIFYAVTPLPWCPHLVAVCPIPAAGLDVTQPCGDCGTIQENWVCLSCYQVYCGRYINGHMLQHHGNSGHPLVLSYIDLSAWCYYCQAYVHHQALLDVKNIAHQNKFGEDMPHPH

MDA-MB-231 [7] = test: Downregulation of c-Myc expression in human MDA-MB-231 cells incubated for 24 hrs by Western blot analysis; assay type: functional, cell-based; conditions: dose 0.2-5 µM
Histone deacetylase 2 = Histone deacetylase 2 (Homo sapiens, UniProt Q92769); test: Inhibition of C-terminal GST-tagged full-length recombinant human HDAC2 expressed in baculovirus infected Sf9 insect cells using Ac-Leu-Gly-Lys(Ac)-AMC as substrate incubated for 30 mins by fluorescence based assay; assay type: cell-based
Sequence of Histone deacetylase 2 (Q92769 whole entry, the tested form may be a part): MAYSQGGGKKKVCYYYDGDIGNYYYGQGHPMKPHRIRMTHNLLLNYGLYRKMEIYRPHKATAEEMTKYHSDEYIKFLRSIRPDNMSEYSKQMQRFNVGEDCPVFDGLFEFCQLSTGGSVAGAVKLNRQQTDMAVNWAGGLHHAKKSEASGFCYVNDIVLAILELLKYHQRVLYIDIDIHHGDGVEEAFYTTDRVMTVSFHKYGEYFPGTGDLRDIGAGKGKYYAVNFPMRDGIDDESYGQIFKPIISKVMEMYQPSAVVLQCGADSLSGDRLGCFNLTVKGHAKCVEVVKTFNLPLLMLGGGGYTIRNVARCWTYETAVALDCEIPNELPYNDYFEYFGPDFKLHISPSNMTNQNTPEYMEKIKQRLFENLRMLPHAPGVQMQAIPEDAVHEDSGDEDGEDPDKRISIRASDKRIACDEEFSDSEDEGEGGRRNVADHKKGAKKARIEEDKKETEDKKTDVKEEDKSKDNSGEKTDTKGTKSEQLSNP

Histone deacetylase 1 = Histone deacetylase 1 (Homo sapiens, UniProt Q13547); test: Inhibition of full-length recombinant human HDAC1 (1 to 482 residues) expressed in baculovirus infected insect cells using Ac-Leu-Gly-Lys(Ac)-AMC as substrate incubated for 30 mins by fluorescence based assay; parameters: species or system Insect cell
Sequence of Histone deacetylase 1 (Q13547 whole entry, the tested form may be a part): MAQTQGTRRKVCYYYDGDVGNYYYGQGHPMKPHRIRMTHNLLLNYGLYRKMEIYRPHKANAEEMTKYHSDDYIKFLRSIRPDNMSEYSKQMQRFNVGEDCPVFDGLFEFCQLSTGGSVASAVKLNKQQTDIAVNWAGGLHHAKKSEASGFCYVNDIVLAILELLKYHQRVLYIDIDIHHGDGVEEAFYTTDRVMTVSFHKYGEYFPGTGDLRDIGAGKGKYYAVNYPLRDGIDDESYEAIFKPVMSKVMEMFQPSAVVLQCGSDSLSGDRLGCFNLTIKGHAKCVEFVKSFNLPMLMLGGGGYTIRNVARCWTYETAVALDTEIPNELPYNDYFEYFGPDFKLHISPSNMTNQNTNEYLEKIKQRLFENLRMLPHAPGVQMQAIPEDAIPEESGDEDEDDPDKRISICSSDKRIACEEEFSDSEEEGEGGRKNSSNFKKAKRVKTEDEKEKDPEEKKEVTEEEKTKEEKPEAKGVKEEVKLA

[8] = target: Bromodomain testis-specific protein (Homo sapiens, UniProt Q58F21); test: Inhibition of recombinant BRDT BD1 (unknown origin) incubated for 120 mins by TR-FRET assay
Histone deacetylase 3 = Histone deacetylase 3 (Homo sapiens, UniProt O15379); test: Inhibition of His-tagged recombinant human HDAC3 expressed in baculovirus infected insect cells using Ac-Leu-Gly-Lys(Ac)-AMC as substrate incubated for 30 mins by fluorescence based assay; parameters: species or system Insect cell
Sequence of Histone deacetylase 3 (O15379 whole entry): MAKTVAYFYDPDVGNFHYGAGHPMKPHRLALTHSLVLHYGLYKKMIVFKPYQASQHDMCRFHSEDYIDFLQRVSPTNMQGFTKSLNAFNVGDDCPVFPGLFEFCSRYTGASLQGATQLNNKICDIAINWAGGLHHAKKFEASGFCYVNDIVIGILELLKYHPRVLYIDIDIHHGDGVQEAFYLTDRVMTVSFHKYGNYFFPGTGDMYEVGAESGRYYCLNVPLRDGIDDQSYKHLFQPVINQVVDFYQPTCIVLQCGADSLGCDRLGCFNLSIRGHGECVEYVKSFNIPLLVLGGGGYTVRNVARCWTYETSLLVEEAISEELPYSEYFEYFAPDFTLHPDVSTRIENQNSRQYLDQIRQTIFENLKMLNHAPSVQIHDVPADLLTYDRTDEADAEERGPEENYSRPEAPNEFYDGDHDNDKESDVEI

MDA-MB-231 [9] = test: Induction of apoptosis in human MDA-MB-231 cells assessed as late apoptotic cells at 10 uM incubated for 48 hrs by Annexin V-FITC/PI staining based flow cytometry relative to control; assay type: functional
Candida albicans [10] = test: Synergistic antifungal activity against azole-resistant Candida albicans 0304103 assessed as fungal growth inhibition measured upto 24 hrs in presence of FLC by absorbance based assay; assay type: functional, organism-based; conditions: dose 4-16 µg/ml
[11] = target: Bromodomain-containing protein 3 (Homo sapiens, UniProt Q15059); test: Inhibition of recombinant BRD3 BD1 (unknown origin) incubated for 120 mins by TR-FRET assay
Sequence of Bromodomain-containing protein 3 (Q15059 whole entry): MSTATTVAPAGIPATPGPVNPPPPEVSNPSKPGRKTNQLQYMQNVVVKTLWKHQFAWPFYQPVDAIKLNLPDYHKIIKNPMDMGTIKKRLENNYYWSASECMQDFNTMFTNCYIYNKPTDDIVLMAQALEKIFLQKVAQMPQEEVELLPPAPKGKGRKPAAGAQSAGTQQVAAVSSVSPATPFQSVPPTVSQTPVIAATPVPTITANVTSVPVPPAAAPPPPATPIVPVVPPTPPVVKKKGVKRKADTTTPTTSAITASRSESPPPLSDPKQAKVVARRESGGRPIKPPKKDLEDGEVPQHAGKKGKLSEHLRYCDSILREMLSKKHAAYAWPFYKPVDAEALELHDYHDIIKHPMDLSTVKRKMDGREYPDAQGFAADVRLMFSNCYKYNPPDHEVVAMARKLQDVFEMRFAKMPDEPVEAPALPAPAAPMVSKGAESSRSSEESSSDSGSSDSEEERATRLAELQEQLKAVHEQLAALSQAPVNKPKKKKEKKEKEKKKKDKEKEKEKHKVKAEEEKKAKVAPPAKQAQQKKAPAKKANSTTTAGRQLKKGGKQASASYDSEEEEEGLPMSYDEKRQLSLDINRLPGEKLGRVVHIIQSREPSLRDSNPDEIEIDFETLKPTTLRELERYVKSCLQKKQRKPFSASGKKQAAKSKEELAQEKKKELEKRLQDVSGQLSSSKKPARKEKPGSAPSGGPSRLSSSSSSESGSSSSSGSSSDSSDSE

MDA-MB-231 [12] = test: Antitumor activity against human MDA-MB-231 cells xenografted in Balb/c nude mouse assessed as tumor growth inhibition at 10 mg/kg, ip qd for 21 consecutive days relative to control; assay type: functional; conditions: MDA-MB-231, 480 h, time 20 day, read-out: TGI
MDA-MB-231 [13] = test: Induction of apoptosis in human MDA-MB-231 cells incubated for 48 hrs by Annexin V-FITC/PI staining based flow cytometry; assay type: functional, cell-based; conditions: dose 2.5-10 µM
MDA-MB-231 [14] = test: Induction of apoptosis in human MDA-MB-231 cells assessed as late apoptotic cells at 2.5 uM incubated for 48 hrs by Annexin V-FITC/PI staining based flow cytometry relative to control; assay type: functional
[15] = Metabolic stability in ICR mouse liver microsome assessed as half life; assay type: ADME; conditions: liver microsomes
MDA-MB-231 [16] = test: Induction of apoptosis in human MDA-MB-231 cells assessed as late apoptotic cells at 5 uM incubated for 48 hrs by Annexin V-FITC/PI staining based flow cytometry relative to control; assay type: functional
Candida albicans [17] = test: Synergistic antifungal activity against Candida albicans 0304103 infected in ICR mouse assessed as decrease in kidney fungal load at 10 to 20 mg/kg, ip for 5 consecutive days; assay type: functional, organism-based; conditions: dose 10-20 mg/kg, time 5.0 day
[18] = target: T1, Bromodomain-containing protein 4; test: Inhibition of recombinant BRD4 (unknown origin) incubated for 120 mins by TR-FRET assay

`COc1cc2c(cc1-c1c(C)noc1C)[nH]c1ncnc(NCCCCCCC(=O)NO)c12` showed an IC50 (MDA-MB-231 [1]) of 500 nM, an IC50 (K562) of 2500 nM and an inhibition [2] of 93.7%. For the same compound, the MIC80 (Candida albicans [3]) was 0.5 µg/mL (≈ 1.1 µM), the MIC80 (Cryptococcus neoformans) was 8 µg/mL (≈ 17.7 µM) and the “fractional inhibitory concentration index (FICI)” value (Candida albicans [4]) was 0.07. For the same compound, the CLint scaled [5] was 103 mL/min/kg, the IC50 [6] was 9 nM and the Activity (MDA-MB-231 [7]) was “Dose-Dependent Effect”. For the same compound, the IC50 (Histone deacetylase 2) was 152 nM, the IC50 (Histone deacetylase 1) was 10 nM and the IC50 [8] was 221 nM. For the same compound, the IC50 (Histone deacetylase 3) was 161 nM, the Activity (MDA-MB-231 [9]) was 69.85% and the Activity (Candida albicans [10]) was “Dose-Dependent Effect”. The IC50 [11] was 113 nM, the inhibition in vivo at 10 mg/kg (MDA-MB-231 [12]) was 64.9% and the Activity (MDA-MB-231 [13]) was “Dose-Dependent Effect”. For the same compound, the Activity (MDA-MB-231 [14]) was 25.19%, the half-life [15] was 53.3 min and the Activity (MDA-MB-231 [16]) was 58.39%. The Activity (Candida albicans [17]) was “Active” and the IC50 [18] was 35 nM.

Work on `COc1cc2c(cc1-c1c(C)noc1C)[nH]c1nc(C)nc(NCCCCCCC(=O)NO)c12` yielded an IC50 (MDA-MB-231 [1]) of 1000 nM, an IC50 (K562) of 2500 nM and an inhibition [2] of 91.7%. The MIC80 (Candida albicans [3]) was 8 µg/mL (≈ 17.1 µM), the MIC80 (Cryptococcus neoformans) was 8 µg/mL (≈ 17.1 µM) and the “fractional inhibitory concentration index (FICI)” value (Candida albicans [4]) was 0.25. The CLint scaled [5] was 285 mL/min/kg, the IC50 [6] was 14 nM and the Activity (MDA-MB-231 [7]) was “Dose-Dependent Effect”. The IC50 (Histone deacetylase 2) was 85 nM, the IC50 (Histone deacetylase 1) was 19 nM and the IC50 [8] was 1110 nM. The IC50 (Histone deacetylase 3) was 213 nM, the Activity (MDA-MB-231 [9]) was 49.38% and the Activity (Candida albicans [10]) was “Dose-Dependent Effect”. The IC50 [11] was 2590 nM, the inhibition in vivo at 10 mg/kg (MDA-MB-231 [12]) was 67.9% and the Activity (MDA-MB-231 [13]) was “Dose-Dependent Effect”. For the same compound, the Activity (MDA-MB-231 [14]) was 8.35%, the half-life [15] was 19.3 min and the Activity (MDA-MB-231 [16]) was 46.61%. The Activity (Candida albicans [17]) was “Active” and the IC50 [18] was 63 nM.
